Results as given in ChEMBL document CHEMBL1201862, “PubChem BioAssay data set” (2004).
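Protocol summary: plate cells (96-well), add compound at 5 concentrations, incubate 48 h, interpolate endpoints linearly. The concentration for 50% growth inhibition is given as GI50.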 Active and inactive are the calls of the source. Rule as the data show it: active = GI50 up to about 1.1 µM and inactive = higher.

Legend:
Assay in all cases: NCI-60 cell line screen, 48 h
SK-MEL-28 = test system: SK-MEL-28
OVCAR-3 = test system: OVCAR-3
A549 = test system: A549
CCRF-CEM = test system: CCRF-CEM
MOLT-4 = test system: MOLT-4
NCI-H226 = test system: NCI-H226
HCT-116 = test system: HCT-116
SF-539 = test system: SF-539
DMS-273 = test system: DMS-273
HT-29 = test system: HT-29
HCT-15 = test system: HCT-15
SN12C = test system: SN12C
SF-268 = test system: SF-268
UO-31 = test system: UO-31
SNB-19 = test system: SNB-19
NCI-H460 = test system: NCI-H460
SNB-75 = test system: SNB-75
SK-MEL-5 = test system: SK-MEL-5
CAKI-1 = test system: CAKI-1
HOP-62 = test system: HOP-62
SNB-78 = test system: SNB-78
LXFL 529 = test system: LXFL 529
HOP-92 = test system: HOP-92
HL-60 = test system: HL-60
SK-MEL-2 = test system: SK-MEL-2
OVCAR-4 = test system: OVCAR-4
SF-295 = test system: SF-295
M14 = test system: M14
LOX IMVI = test system: LOX IMVI
RXF 393 = test system: RXF 393
NCI-H23 = test system: NCI-H23
EKVX = test system: EKVX
M19-MEL = test system: M19-MEL
Malme-3M = test system: Malme-3M
UACC-62 = test system: UACC-62
UACC-257 = test system: UACC-257
U-251 = test system: U-251
MCF7 = test system: MCF7
OVCAR-8 = test system: OVCAR-8
SK-OV-3 = test system: SK-OV-3
DLD-1 = test system: DLD-1
COLO 205 = test system: COLO 205
OVCAR-5 = test system: OVCAR-5
A498 = test system: A498
TK-10 = test system: TK-10
SW-620 = test system: SW-620
K562 = test system: K562
DMS-114 = test system: DMS-114
HCC 2998 = test system: HCC 2998
786-0 = test system: 786-0
ACHN = test system: ACHN
SR = test system: SR
NCI-H522 = test system: NCI-H522
RPMI-8226 = test system: RPMI-8226
IGROV-1 = test system: IGROV-1
KM12 = test system: KM12
KM-20L2 = test system: KM-20L2
DU-145 = test system: DU-145
Hs-578T = test system: Hs-578T
PC-3 = test system: PC-3
BT-549 = test system: BT-549
MDA-N = test system: MDA-N
T47D = test system: T47D
MDA-MB-435 = test system: MDA-MB-435
MDA-MB-231 = test system: MDA-MB-231
NCI/ADR-RES = test system: NCI/ADR-RES

COc1cc(C2c3cc4c(cc3[C@@H](Nc3ccc(C(=O)O)cc3)C3COC(=O)[C@H]23)OCO4)cc(OC)c1O (stereo not given in full)
GI50 (SK-MEL-28): > 17.5 µM (inactive)
GI50 (OVCAR-3): 14.7 µM (inactive)
GI50 (A549): > 17.5 µM (inactive)
GI50 (CCRF-CEM): 2.56 µM (inactive)
GI50 (MOLT-4): 0.546 µM (active)
GI50 (NCI-H226): 4.47 µM (inactive)
GI50 (HCT-116): 14.5 µM (inactive)
GI50 (SF-539): 4.7 µM (inactive)
GI50 (DMS-273): 5.65 µM (inactive)
GI50 (HT-29): 11.1 µM (inactive)
GI50 (HCT-15): 7.5 µM
GI50 (SN12C): > 17.5 µM (inactive)
GI50 (SF-268): 10.8 µM (inactive)
GI50 (UO-31): > 17.5 µM (inactive)
GI50 (SNB-19): 6.11 µM (inactive)
GI50 (NCI-H460): 2.01 µM (inactive)
GI50 (SNB-75): 6.58 µM (inactive)
GI50 (SK-MEL-5): 9.77 µM (inactive)
GI50 (CAKI-1): 5.93 µM (inactive)
GI50 (HOP-62): 6.11 µM (inactive)
GI50 (SNB-78): 5.78 µM (inactive)
GI50 (LXFL 529): 5.82 µM (inactive)
GI50 (HOP-92): 4.81 µM (inactive)
GI50 (HL-60): 3.24 µM (inactive)
GI50 (SK-MEL-2): 16.6 µM (inactive)
GI50 (OVCAR-4): 11 µM (inactive)
GI50 (SF-295): 8.85 µM (inactive)
GI50 (M14): 12.6 µM (inactive)
GI50 (LOX IMVI): 2.42 µM (inactive)
GI50 (RXF 393): 10.5 µM (inactive)
GI50 (NCI-H23): 7.74 µM (inactive)
GI50 (EKVX): > 17.5 µM (inactive)
GI50 (M19-MEL): 10 µM (inactive)
GI50 (Malme-3M): 8.55 µM (inactive)
GI50 (UACC-62): 9.82 µM (inactive)
GI50 (UACC-257): > 17.5 µM (inactive)

COc1ccc2c3c(c4cc(OC)c(OC)cc4c2c1)C[C@H]1CCCCN1C3 [CRYPTOPLEURINE]
GI50 (U-251): 0.005 µM (active)
GI50 (HCT-116): 0.005 µM (active)
GI50 (MCF7): 0.005 µM (active)
GI50 (OVCAR-8): 0.005 µM (active)
GI50 (HT-29): 0.005 µM (active)
GI50 (SK-OV-3): 0.005 µM (active)
GI50 (SNB-78): 0.005 µM (active)
GI50 (DLD-1): 0.005 µM (active)
GI50 (OVCAR-4): 0.005 µM (active)
GI50 (LOX IMVI): 0.005 µM (active)

O=C1C=C(Nc2ccc(Br)cc2)c2ccccc2C1=O
GI50 (SK-MEL-28): 17.2 µM (inactive)
GI50 (COLO 205): 17 µM (inactive)
GI50 (OVCAR-3): 7.1 µM (inactive)
GI50 (A549): 12.7 µM (inactive)
GI50 (CCRF-CEM): 11 µM (inactive)
GI50 (U-251): 4 µM (inactive)
GI50 (OVCAR-5): 20.8 µM (inactive)
GI50 (MOLT-4): 10.9 µM (inactive)
GI50 (NCI-H226): 18.7 µM (inactive)
GI50 (A498): 17.2 µM (inactive)
GI50 (HCT-116): 13.6 µM (inactive)
GI50 (OVCAR-8): 12.5 µM (inactive)
GI50 (SF-539): 16 µM (inactive)
GI50 (DMS-273): 12.2 µM (inactive)
GI50 (HT-29): 17.5 µM (inactive)
GI50 (HCT-15): 5.26 µM
GI50 (SN12C): 15.2 µM (inactive)
GI50 (SF-268): 13.5 µM (inactive)
GI50 (UO-31): 16 µM (inactive)
GI50 (SNB-19): 15.6 µM (inactive)
GI50 (NCI-H460): 7.28 µM (inactive)
GI50 (TK-10): 19.6 µM (inactive)
GI50 (SNB-75): 11 µM (inactive)
GI50 (SW-620): 12.9 µM (inactive)
GI50 (HOP-62): 16.9 µM (inactive)
GI50 (K562): 13.9 µM (inactive)
GI50 (SK-OV-3): 16.8 µM (inactive)
GI50 (LXFL 529): 12.5 µM (inactive)
GI50 (DMS-114): 4.65 µM (inactive)
GI50 (HL-60): 4.51 µM (inactive)
GI50 (HCC 2998): 15 µM (inactive)
GI50 (SK-MEL-2): 15.5 µM (inactive)
GI50 (786-0): 14.6 µM (inactive)
GI50 (OVCAR-4): 2.09 µM (inactive)
GI50 (ACHN): 4.75 µM (inactive)
GI50 (SF-295): 15.8 µM (inactive)
GI50 (M14): 14.9 µM (inactive)
GI50 (SR): 2.54 µM (inactive)
GI50 (NCI-H522): 11.3 µM (inactive)
GI50 (RPMI-8226): 6.73 µM (inactive)
GI50 (RXF 393): 16.7 µM (inactive)
GI50 (NCI-H23): 3.33 µM (inactive)
GI50 (EKVX): 18.5 µM (inactive)
GI50 (M19-MEL): 1.73 µM (inactive)
GI50 (IGROV-1): 14.8 µM (inactive)
GI50 (KM12): 14.1 µM (inactive)
GI50 (Malme-3M): 15.1 µM (inactive)
GI50 (UACC-62): 4.39 µM (inactive)
GI50 (UACC-257): 13.5 µM (inactive)
GI50 (KM-20L2): 23 µM (inactive)

OC1[C@@H]2[C@@H](O)CCCN2C[C@@H](O)[C@H]1O (stereo not given in full)
GI50 (SK-MEL-28): > 100 µM (inactive)
GI50 (COLO 205): > 100 µM (inactive)
GI50 (OVCAR-3): > 100 µM (inactive)
GI50 (A549): > 100 µM (inactive)
GI50 (CCRF-CEM): > 100 µM (inactive)
GI50 (U-251): > 100 µM (inactive)
GI50 (DU-145): > 100 µM (inactive)
GI50 (OVCAR-5): > 100 µM (inactive)
GI50 (MOLT-4): > 100 µM (inactive)
GI50 (Hs-578T): > 100 µM (inactive)
GI50 (NCI-H226): > 100 µM (inactive)
GI50 (A498): > 100 µM (inactive)
GI50 (HCT-116): > 100 µM (inactive)
GI50 (MCF7): > 100 µM (inactive)
GI50 (OVCAR-8): > 100 µM (inactive)
GI50 (SF-539): > 100 µM (inactive)
GI50 (HT-29): > 100 µM (inactive)
GI50 (HCT-15): > 100 µM
GI50 (SN12C): > 100 µM (inactive)
GI50 (PC-3): > 100 µM (inactive)
GI50 (SF-268): > 100 µM (inactive)
GI50 (UO-31): > 100 µM (inactive)
GI50 (SNB-19): > 100 µM (inactive)
GI50 (NCI-H460): > 100 µM (inactive)
GI50 (TK-10): > 100 µM (inactive)
GI50 (SNB-75): > 100 µM (inactive)
GI50 (SW-620): > 100 µM (inactive)
GI50 (BT-549): > 100 µM (inactive)
GI50 (SK-MEL-5): > 100 µM (inactive)
GI50 (CAKI-1): > 100 µM (inactive)
GI50 (HOP-62): > 100 µM (inactive)
GI50 (K562): > 100 µM (inactive)
GI50 (SK-OV-3): > 100 µM (inactive)
GI50 (MDA-N): > 100 µM (inactive)
GI50 (HOP-92): > 100 µM (inactive)
GI50 (T47D): > 100 µM (inactive)
GI50 (HL-60): > 100 µM (inactive)
GI50 (HCC 2998): > 100 µM (inactive)
GI50 (SK-MEL-2): > 100 µM (inactive)
GI50 (786-0): > 100 µM (inactive)
GI50 (OVCAR-4): > 100 µM (inactive)
GI50 (ACHN): > 100 µM (inactive)
GI50 (SF-295): > 100 µM (inactive)
GI50 (M14): > 100 µM (inactive)
GI50 (LOX IMVI): > 100 µM (inactive)
GI50 (MDA-MB-435): > 100 µM (inactive)
GI50 (SR): > 100 µM (inactive)
GI50 (NCI-H522): 19.5 µM (inactive)
GI50 (RPMI-8226): > 100 µM (inactive)
GI50 (RXF 393): > 100 µM (inactive)
GI50 (NCI-H23): > 100 µM (inactive)
GI50 (EKVX): > 100 µM (inactive)
GI50 (MDA-MB-231): > 100 µM (inactive)
GI50 (IGROV-1): > 100 µM (inactive)
GI50 (KM12): > 100 µM (inactive)
GI50 (Malme-3M): > 100 µM (inactive)
GI50 (NCI/ADR-RES): > 100 µM (inactive)
GI50 (UACC-62): > 100 µM (inactive)
GI50 (UACC-257): > 100 µM (inactive)
